Results published in US12146167B2 (priority 2021, dated 2024).

Tests used:
Settings in all cases: pH 7.5
[1] = test system: Cg_MetY (O-acetylhomoserine sulfhydrylase metY, SEQ ID NO: 2); type: biochemical, Corynebacterium glutamicum ATCC 13032
[2] = test system: Cg_MetY_P2T (O-acetylhomoserine sulfhydrylase variant metY_P2T, SEQ ID NO: 6); type: biochemical, Corynebacterium glutamicum ATCC 13032
[3] = test system: Cv_MetZ (O-succinylhomoserine sulfhydrylase metZ, SEQ ID NO: 10); type: biochemical, Chromobacterium violaceum ATCC 12472
[4] = test system: Hn_MetZ (O-succinylhomoserine sulfhydrylase metZ, SEQ ID NO: 14); type: biochemical, Hyphomonas neptunium ATCC 15444

Measured: Product

CS [MM, methyl mercaptane]
yes: all assays above
